Literature values as cited in US20240350409A1, “TRANSDERMAL DELIVERY FORMULATIONS AND METHODS FOR THE MANUFACTURE THEREOF” (LifeActive, Inc., priority 2023, published 2024).

Settings: in H2O at ~15-20° C.; weak organic acids

Citric Acid
pKa3: 6.40

Maleic Acid
pKa2: 6.07
